The values below come from patent publication US10377744B2, “Potent soluble epdxide hydrolase inhibitors” (Eicosis, LLC, priority 2014, dated 2019).

Data set [1] is described as follows: Solubility in Acetate Buffer at pH 3. Type of data set: physicochemical. The following applies: for solubility: aqueous buffer, read-out: Sol (ug/mL) at pH3.
The nature of data set [2]: Experimental logP by HPLC method. Type of data set: physicochemical. The following applies: for chromatographic logP: read-out: Exp. logP.
A short description of data set [3]: Solubility in Phosphate Buffer at pH 7.4. The class given is physicochemical. The following applies: for solubility compared to sEH inhibitors with hydrophobic alkyl group at R7: in words.
A further data set has as its system PTZ induced seizure. In words: Pentylenetetrazol (PTZ) induced seizure model. The class given is in vivo, mice. How it is done: To investigate the central nervous system penetration efficacy of sEH inhibitors a standard acute test involving the administration of pro-convulsant pentylenetetrazol (PTZ) was employed. In the subcutaneous pentylenetetrazol (PTZ) test 80 mg/kg of PTZ is administered by subcutaneous route, time to onset of first clonic seizure (clonus), time to tonic hind limb extension and lethality (tonus) are monitored for a duration of 30 min. Inhibitors of sEH were completely dissolved using PEG400 as a vehicle to give clear solutions. Inhibitors or vehicle were administered by intraperitoneal route 1 h prior to pro-convulsant at a single discriminating dose based on earlier data. This dose of PTZ produces 100% lethality within 30 min upon administration.
PTZ is a chemical which induces seizures. This assay is considered highly translatable from mice to humans.

The nature of data set [4]: pH titration of solubility. The conditions noted are these: FIG. 9. Type of data set: physicochemical.
The target in data set [5] is T1, human sEH (Homo sapiens (Human), UniProt P34913). The data set can be described thus: FRET-displacement assay (Ki). Type of data set: binding. The conditions noted are these: for Ki: affinity purified recombinant human sEH, FRET-displacement.
Data set [6] addresses T1, human sEH. The data set can be described thus: koff measurement, enzymatic t1/2 (residence time). The conditions noted are these: time for half of the drug to dissociate from recombinant affinity purified human sEH.
The mark [7] stands for this setting: HPLC method calibrated with eLogP of 4 selected inhibitors determined by shake-flask method.

Values after ≈ are worked out from the molar mass of the structure shown. Where two headings read alike, the source gives them in different places.

By Ki is commonly meant the dissociation constant of the complex between target and ligand, obtained from inhibition or displacement.

T1 sequence (P34913 whole entry): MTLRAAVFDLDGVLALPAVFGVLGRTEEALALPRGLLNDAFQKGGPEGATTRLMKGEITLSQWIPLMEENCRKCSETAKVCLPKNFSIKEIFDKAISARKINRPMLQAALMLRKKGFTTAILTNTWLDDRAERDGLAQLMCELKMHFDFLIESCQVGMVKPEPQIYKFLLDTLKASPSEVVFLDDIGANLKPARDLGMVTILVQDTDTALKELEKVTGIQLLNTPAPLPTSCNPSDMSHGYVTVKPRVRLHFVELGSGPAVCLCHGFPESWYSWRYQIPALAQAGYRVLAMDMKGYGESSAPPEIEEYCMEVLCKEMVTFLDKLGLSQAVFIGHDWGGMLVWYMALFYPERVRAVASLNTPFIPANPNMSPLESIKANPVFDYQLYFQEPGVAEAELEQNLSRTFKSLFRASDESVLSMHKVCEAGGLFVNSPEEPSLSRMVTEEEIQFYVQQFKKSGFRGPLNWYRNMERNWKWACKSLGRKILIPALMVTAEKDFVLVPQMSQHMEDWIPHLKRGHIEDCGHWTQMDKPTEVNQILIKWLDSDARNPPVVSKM

As for “1-(3-fluoro-4-(trifluoromethyl)phenyl)-3-(1-isobutyrylpiperidin-4-yl)urea [Compound 20]”, the “Sol (ug/mL) at pH3” value in data set [1] (Acetate Buffer at pH 3) was 6 ug/mL. With “2-(1-(cyclopropanecarbonyl)piperidin-4-yl)-N-(3-fluoro-4-(trifluoromethoxy)phenyl)acetamide [Compound 48]”, the “Exp. logP” value in data set [2] is given as 5.11. Take `CC(=O)N1CCC(NC(=O)NC23CC4CC(CC(C4)C2)C3)CC1` [APAU, reference compound]: the chromatographic logP in data set [2] was found to be 1.5. The compound also had a solubility in data set [3] (aqueous buffer, Phosphate Buffer at pH 7.4) of 277 µg/mL (≈ 867 µM). As for `O=C(Nc1ccc(OC(F)(F)F)cc1)NC1CCN(C(=O)C2CCOCC2)CC1` [Compound 1, 1-(1-(tetrahydro-2H-pyran-4-carbonyl)piperidin-4-yl)-3-(4-(trifluoromethoxy)phenyl)urea], in data set [2], the chromatographic logP turned out to be 3.26. Same read-out and setting: for `Cc1occc1C(=O)N1CCC(NC(=O)Nc2ccc(OC(F)(F)F)cc2)CC1` [Compound 6, 1-(1-(2-methylfuran-3-carbonyl)piperidin-4-yl)-3-(4-(trifluoromethoxy)phenyl)urea] the value was 4.3.

Regarding `O=C(Nc1ccc(C(F)(F)F)cc1)NC1CCN(C(=O)C2=COCC2)CC1` [Compound 12, 1-(1-(4,5-dihydrofuran-3-carbonyl)piperidin-4-yl)-3-(4-(trifluoromethyl)phenyl)urea], in data set [2] (setting [7]), the chromatographic logP was found to be 3.37. Same read-out and setting: the figure for `O=C(Nc1ccc(C(F)(F)F)cc1)NC1CCN(C(=O)C2CCCOC2)CC1` (stereo not shown) [Compound 15, 1-(1-(tetrahydro-2H-pyran-3-carbonyl)piperidin-4-yl)-3-(4-(trifluoromethyl)phenyl)urea] is 3.41; for `O=C(Nc1ccc(C(F)(F)F)cc1)NC1CCN(C(=O)c2cc[nH]c2)CC1` [Compound 16, 1-(1-(1H-pyrrole-3-carbonyl)piperidin-4-yl)-3-(4-(trifluoromethyl)phenyl)urea] it is 3.26. Consider `O=C(Nc1ccc(OC(F)(F)F)c(F)c1)NC1CCN(C(=O)C2CC2)CC1` [Compound 24, 1-(1-(cyclopropanecarbonyl)piperidin-4-yl)-3-(3-fluoro-4-(trifluoromethoxy)phenyl)urea], for which the chromatographic logP in data set [2] was 4.19. With `CC[C@H](C)C(=O)N1CCC(NC(=O)Nc2ccc(OC(F)(F)F)c(F)c2)CC1` [Compound 26, (S)-1-(3-fluoro-4-(trifluoromethoxy)phenyl)-3-(1-(2-methylbutanoyl)piperidin-4-yl)urea], the chromatographic logP in data set [2] (setting [7]) came out at 4.16. Turning to `O=C(Nc1ccc(OC(F)(F)F)c(F)c1)NC1CCN(C(=O)C2CCCOC2)CC1` (stereo not shown) [Compound 27], the solubility in data set [1] (Acetate Buffer at pH 3) worked out at 522 µg/mL (≈ 1200 µM). Further, the “solubility at pH 3 compared to APAU” value in data set [1] (pH 3, in words) is reported as “much better than the most soluble 1,3-disubstituted urea sEH inhibitors”. The “solubility compared to sEH inhibitors with hydrophobic alkyl group at R7” value in data set [3] is “remarkably enhance the solubility”. On to `O=C(Nc1ccc(OC(F)(F)F)c(F)c1)NC1CCN(C(=O)C2CCOCC2)CC1` [Compound 29, 1-(3-fluoro-4-(trifluoromethoxy)phenyl)-3-(1-(tetrahydro-2H-pyran-4-carbonyl)piperidin-4-yl)urea], for which the solubility in data set [1] (Acetate Buffer at pH 3) amounted to 206 µg/mL (≈ 475 µM). Besides, the “onset of the tonic phase of seizure” value in the data set on PTZ induced seizure (0.3 mpk, wild type Swiss mice, subcutaneous PTZ, p<0.05) is listed as “delayed onset of the tonic phase of seizure”. The “protection from convulsions and associated lethality” value in the data set with PTZ induced seizure (mice, PTZ 80 mg/kg subcutaneous, inhibitor 1 h prior) was “protect mice from convulsions and associated lethality”. Further, the “solubility in pH titration” value in data set [4] is “increases dramatically when the pH is below 4”. Further, in data set [2] (setting [7]), the chromatographic logP came out at 3.73. Besides, the “solubility compared to sEH inhibitors with hydrophobic alkyl group at R7” value in data set [3] is given as “remarkably enhance the solubility”. For the compound `O=C(Nc1ccc(OC(F)(F)F)c(F)c1)NC1CCN(C(=O)C2(C(F)(F)F)CC2)CC1` [Compound 30], in data set [2] (setting [7]), the chromatographic logP was found to be 5.94. Turning to `CCC(=O)N1CCC(NC(=O)Nc2ccc(C(F)(F)F)c(F)c2)CC1` [Compound 31, 1-(3-fluoro-4-(trifluoromethyl)phenyl)-3-(1-propionylpiperidin-4-yl)urea], the chromatographic logP in data set [2] (setting [7]) turned out to be 3.76. As for `O=C(Nc1ccc(C(F)(F)F)c(F)c1)NC1CCN(C(=O)C2CC2)CC1` [Compound 32, 1-(1-(cyclopropanecarbonyl)piperidin-4-yl)-3-(3-fluoro-4-(trifluoromethyl)phenyl)urea], the chromatographic logP in data set [2] (setting [7]) was 3.94. The same measure, in the same setting: for `O=C(Nc1ccc(C(F)(F)F)c(F)c1)NC1CCN(C(=O)[C@@H]2CCOC2)CC1` [Compound 33, (R)-1-(3-fluoro-4-(trifluoromethyl)phenyl)-3-(1-(tetrahydrofuran-3-carbonyl)piperidin-4-yl)urea] the value was 3.41; for `O=C(Nc1ccc(C(F)(F)F)c(F)c1)NC1CCN(C(=O)C2CCCOC2)CC1` (stereo not shown) [Compound 35, 1-(3-fluoro-4-(trifluoromethyl)phenyl)-3-(1-(tetrahydro-2H-pyran-3-carbonyl)piperidin-4-yl)urea], 3.84.

With `O=C(Nc1ccc(C(F)(F)F)c(F)c1)NC1CCN(C(=O)C2(C(F)(F)F)CC2)CC1` [Compound 36, 1-(3-fluoro-4-(trifluoromethyl)phenyl)-3-(1-(1-(trifluoromethyl)cycloproropane-1-carbonyl)piperidin-4-yl)urea], in data set [2] (setting [7]), the chromatographic logP stood at 5.52. In addition, on human sEH [5] (Ki of original inhibitor / Ki of meta-F substituted inhibitor), the “Potency Enhancement” value worked out at 1. With `O=C(Nc1ccc(C(F)(F)F)c(F)c1)NC1CCN(C(=O)C2CCOCC2)CC1` [Compound 37, 1-(3-fluoro-4-(trifluoromethyl)phenyl)-3-(1-(tetrahydro-2H-pyran-4-carbonyl)piperidin-4-yl)urea], in data set [2] (setting [7]), the chromatographic logP came out at 3.52. `O=C(Nc1ccc(OC(F)(F)F)c(F)c1)Nc1ccc(OC(F)(F)F)c(F)c1` [Compound 38]: the Ki on human sEH [5] is 1.95 ± 0.3 nM. Same read-out and setting: for `O=C(Nc1ccc(OC(F)(F)F)c(F)c1)NC1CCN(C(=O)N2CCC(NC(=O)Nc3ccc(OC(F)(F)F)c(F)c3)CC2)CC1` [Compound 39] the value was 10.1 ± 1.8 nM. Regarding `CCOC(=O)N1CCC(NC(=O)Nc2ccc(OC(F)(F)F)c(F)c2)CC1` [Compound 40, ethyl 4-(3-(3-fluoro-4-(trifluoromethoxy)phenyl)ureido)piperidine-1-carboxylate], the chromatographic logP in data set [2] (setting [7]) was 5.94.

As for `CCOC(=O)N1CCC(NC(=O)Nc2ccc(C(F)(F)F)c(F)c2)CC1` [Compound 41, ethyl 4-(3-(3-fluoro-4-(trifluoromethyl)phenyl)ureido)piperidine-1-carboxylate], the chromatographic logP in data set [2] (setting [7]) came out at 5.46. The same measure, in the same setting: for `O=C(Nc1ccc(OC(F)(F)F)c(F)c1)NC1CCN(C(=O)N2CCOCC2)CC1` [Compound 43, 1-(3-fluoro-4-(trifluoromethoxy)phenyl)-3-(1-(morpholine-4-carbonyl)piperidin-4-yl)urea] the value was 3.93. For the compound `CC[C@H](C)C(=O)N1CCC(NC(=O)Nc2ccc(OC(F)(F)F)c(Cl)c2)CC1` [Compound 44, (S)-1-(3-chloro-4-(trifluoromethoxy)phenyl)-3-(1-(2-methylbutanoyl)piperidin-4-yl)urea], on human sEH [6], the “t1/2 (min) human sEH” value is recorded as 10 min. Also, in data set [2] (setting [7]), the chromatographic logP came out at 7.7. `CC[C@H](C)C(=O)N1CCC(NC(=O)Nc2ccc(OC(F)(F)F)c(Br)c2)CC1` [Compound 45]: the chromatographic logP in data set [2] (setting [7]) was determined as 8.07. `CC[C@H](C)C(=O)N1CCC(NC(=O)Nc2ccc(OC(F)(F)F)c(C(F)(F)F)c2)CC1` [Compound 46, (S)-1-(1-(2-methylbutanoyl)piperidin-4-yl)-3-(4-(trifluoromethoxy)-3-(trifluoromethyl)phenyl)urea]: the chromatographic logP in data set [2] (setting [7]) is 9.02. Same read-out and setting: for `CC[C@H](C)C(=O)N1CCC(NC(=O)Nc2ccc(OC(F)(F)F)c(OC(F)(F)F)c2)CC1` [Compound 47] the value was 10.6. In the case of `CC(C)C(=O)N1CCC(NC(=O)Nc2ccc(C(F)(F)F)cc2)CC1` [Compound 2389, reference compound], in data set [2], the “Exp. logP” value came to 3.37. Same read-out and setting: the figure for `CC(C)C(=O)N1CCC(NC(=O)Nc2ccc(OC(F)(F)F)cc2)CC1` [Compound 2422, reference compound] is 3.56.
